This is an account of results in patent US9617216B2, “Antifungal oxodihydropyridinecarbohydrazide derivative” (Daewoong Pharmaceutical Co., Ltd., priority 2013, dated 2017).

By MIC80 is commonly meant the lowest concentration that inhibits either 80% of growth or 80% of the strains tested, depending on the study. A lower MIC80 goes with greater potency. A word on the MIC50: it is the lowest concentration that inhibits either 50% of growth or 50% of the strains tested, depending on the study. Low values mean higher susceptibility, high ones lower susceptibility.

In one assay the test system is Candida albicans. Kind of assay: In vitro antifungal activity test (MIC), Candida albicans. The note with it: Candida albicans; concentration at which growth is inhibited by 80% vs negative control; 35° C., 24 hours, RPMI 1640, alama blue. It counts as cell-based. On the procedure:
(§1) The antifungal activities of the compounds of the present invention were evaluated using Candida albicans as yeast fungus, and Aspergillus fumigatus as a filamentous fungus. The above fungi used were all purchased from American Type Culture Collection (ATCC). The strains used in the experiment were inoculated into a Sabouraud dextrose agar medium, and then cultured at 35° C. for a sufficient period of time, e.g., 24 hours for Candida albicans, and about 7 days for Aspergillus fumigatus. As for Candida albicans, about 5 to 7 single colonies were taken from the cultured medium, sufficiently suspended in 1 ml of 0.85% sterile saline solution, and adjusted to have an optical density of 0.095 to 0.107 at 530 nm. A preparation of a strain diluent was diluted in Roswell park memorial institute (RPMI) 1640 medium at a 1:10 ratio, and the resultant was diluted again at a 1:100 ratio to obtain an inoculation preparation for Candida albicans with a concentration of 1.0×10^3 to 5.0×10^3 CFU/mL. As for Aspergillus fumigatus, the cultured Sabouraud dextrose agar was added with 1 mL of 0.2% Tween 20 diluted with 0.85% sterile saline solution, and then the plate was shaken to detach conidium from the plate. The solution collected from the plate surface was transferred into a sterile tube, and placed at room temperature for 5 minutes to deposit heavy substances. The resulting supernatant was transferred into the sterile tube, sufficiently suspended for about 15 seconds, and prepared a strain diluent with a concentration of 0.4×10^6 to 5.0×10^6 CFU/mL using a hemocytometer. The thus prepared strain diluent was diluted in RPMI 1640 medium at a 1:100 ratio to obtain an inoculation preparation for Aspergillus fumigatus. Candida albicans was cultured at 35° C. for 24 hours and Aspergillus fumigatus was cultured at 35° C. for 48 hours, and the concentrations, at which growth is inhibited by 80% or 50% compared to a negative control group, were determined using alama blue color developing reagent. All experiments were repeated twice for each concentration, and the results of antifungal activities (MIC80 MIC50 μg/mL) are shown in Tables 1 to 2.

The next assay concerns Aspergillus fumigatus. Kind of assay: In vitro antifungal activity test (MIC), Aspergillus fumigatus. The assay is classed as cell-based. The conditions noted are these: Aspergillus fumigatus; concentration at which growth is inhibited by 50% vs negative control; 35° C., 48 hours, RPMI 1640, alama blue. On the procedure:
as §1

≈ marks a conversion by molar mass, not a printed value.

In turn, `Cn1cc(C(=O)NNc2ccccc2F)ccc1=O` [Example 1, N′-(2-fluorophenyl)-1-methyl-6-oxo-1,6-dihydropyridine-3-carbohydrazide] had an MIC80 in the assay on Candida albicans of 0.05 µg/mL (≈ 0.191 µM). The molecule also returned an MIC50 in the assay with Aspergillus fumigatus of 0.1 µg/mL (≈ 0.383 µM).
Molecule `Cn1cc(C(=O)NNc2ccc(S(=O)(=O)C(F)(F)F)cc2)ccc1=O` [Example 10, 1-methyl-6-oxo-N′-(4-((trifluoromethyl)sulfonyl)phenyl)-1,6-dihydropyridine-3-carbohydrazide] returned an MIC80 in the assay with Candida albicans of 0.04 µg/mL (≈ 0.107 µM). Moreover, the MIC50 with Aspergillus fumigatus is 0.1 µg/mL (≈ 0.266 µM).
Regarding `Cn1cc(C(=O)NNc2ccc(F)cc2F)ccc1=O` [Example 11, N′-(2,4-difluorophenyl)-1-methyl-6-oxo-1,6-dihydropyridine-3-carbohydrazide], in the assay on Candida albicans, the MIC80 was determined as 0.03 µg/mL (≈ 0.107 µM). In the assay with Aspergillus fumigatus, this molecule gave an MIC50 of 0.05 µg/mL (≈ 0.179 µM).
For `Cn1cc(C(=O)NNc2ccc(Cl)cc2Cl)ccc1=O` [Example 15, N′-(2,4-dichlorophenyl)-1-methyl-6-oxo-1,6-dihydropyridine-3-carbohydrazide], in the assay on Candida albicans, the MIC80 turned out to be 0.03 µg/mL (≈ 0.0961 µM). In addition, the MIC50 in the assay with Aspergillus fumigatus is 1.95 µg/mL (≈ 6.25 µM).
In turn, `Cn1cc(C(=O)NNc2ccc(F)nc2)ccc1=O` [Example 18, N′-(6-fluoropyridine-3-yl)-1-methyl-6-oxo-1,6-dihydropyridine-3-carbohydrazide] showed an MIC80 against Candida albicans of 0.03 µg/mL (≈ 0.114 µM). Also, in the assay on Aspergillus fumigatus, the MIC50 was 0.4 µg/mL (≈ 1.53 µM).
On to `Cn1cc(C(=O)NNc2cccc(F)c2)cc(Cl)c1=O` [Example 24, 5-chloro-N′-(3-fluorophenyl)-1-methyl-6-oxo-1,6-dihydropyridine-3-carbohydrazide], for which the MIC80 against Candida albicans amounted to 0.06 µg/mL (≈ 0.203 µM). Moreover, the MIC50 against Aspergillus fumigatus worked out at 1.8 µg/mL (≈ 6.09 µM).
Molecule `Cn1cc(C(=O)NNc2cccc(Cl)c2)cc(Cl)c1=O` [Example 26, 5-chloro-N′-(3-chlorophenyl)-1-methyl-6-oxo-1,6-dihydropyridine-3-carbohydrazide] gave an MIC80 against Candida albicans of 0.06 µg/mL (≈ 0.192 µM). Also, the MIC50 in the assay with Aspergillus fumigatus came to 1 µg/mL (≈ 3.2 µM).
In the assay on Candida albicans, `O=C(NNc1cccc(F)c1)c1c(Cl)cc(=O)n2c1CCC2` [Example 33, 7-chloro-N′-(3-fluorophenyl)-5-oxo-1,2,3,5-tetrahydroindolizine-8-carbohydrazide] showed an MIC80 of 0.13 µg/mL (≈ 0.404 µM). Also, in the assay on Aspergillus fumigatus, the MIC50 came to 0.5 µg/mL (≈ 1.55 µM).
On to `O=C(NNc1cccc(F)c1)c1ccc(=O)n(CCc2cccc(Cl)c2)c1` [Example 57, 1-(3-chlorophenethyl)-N′-(3-fluorophenyl)-6-oxo-1,6-dihydropyridine-3-carbohydrazide], for which the MIC80 against Candida albicans came to 0.08 µg/mL (≈ 0.207 µM).
The molecule `O=C(NNc1cccc(F)c1)c1ccc(=O)n(CCc2ccc(Cl)cc2)c1` [Example 58, 1-(4-chlorophenethyl)-N′-(3-fluorophenyl)-6-oxo-1,6-dihydropyridine-3-carbohydrazide] yielded an MIC80 in the assay on Candida albicans of 0.08 µg/mL (≈ 0.207 µM).
In the assay on Candida albicans, `O=C(NNc1cccc(F)c1)c1ccc(=O)n(CCc2ccccc2F)c1` [Example 59, 1-(2-fluorophenethyl)-N′-(3-fluorophenyl)-6-oxo-1,6-dihydropyridine-3-carbohydrazide] yielded an MIC80 of 0.14 µg/mL (≈ 0.379 µM). This MIC80 is about 1.8-fold higher than that of the molecule before.
With `O=C(NNc1cccc(F)c1)c1ccc(=O)n(CCc2ccc(F)cc2)c1` [Example 60, 1-(4-fluorophenethyl)-N′-(3-fluorophenyl)-6-oxo-1,6-dihydropyridine-3-carbohydrazide], the MIC80 against Candida albicans was 0.14 µg/mL (≈ 0.379 µM).
Take `O=C(NNc1cccc(F)c1)c1ccc(=O)n(CCOc2ccccc2F)c1` [Example 61, 1-(2-(2-fluorophenoxy)ethyl)-N′-(3-fluorophenyl)-6-oxo-1,6-dihydropyridine-3-carbohydrazide]: the MIC80 against Candida albicans came to 0.08 µg/mL (≈ 0.208 µM).
On the same count and under the same terms, with `O=C(NNc1cccc(F)c1)c1ccc(=O)n(CCOc2ccc(Cl)cc2)c1` [Example 62, 1-(2-(4-chlorophenoxy)ethyl)-N′-(3-fluorophenyl)-6-oxo-1,6-dihydropyridine-3-carbohydrazide] the figure was 0.16 µg/mL (≈ 0.398 µM).
Same read-out and setting: in the case of `O=C(NNc1cccc(F)c1)c1ccc(=O)n(CCOc2cccc(C(F)(F)F)c2)c1` [Example 63, N′-(3-fluorophenyl)-6-oxo-1-(2-(3-(trifluoromethyl)phenoxy)ethyl)-1,6-dihydropyridine-3-carbohydrazide] it was 0.09 µg/mL (≈ 0.207 µM); in that of `O=C(NNc1cccc(F)c1)c1ccc(=O)n(CCOc2ccc(Cl)cc2Cl)c1` [Example 64, 1-(2-(2,4-dichlorophenoxy)ethyl)-N′-(3-fluorophenyl)-6-oxo-1,6-dihydropyridine-3-carbohydrazide], 0.09 µg/mL (≈ 0.206 µM).
As to `O=C(NNc1cccc(F)c1)c1ccc(=O)n(CCOc2ccc(F)cc2)c1` [Example 65, 1-(2-(4-fluorophenoxy)ethyl)-N′-(3-fluorophenyl)-6-oxo-1,6-dihydropyridine-3-carbohydrazide], the MIC80 against Candida albicans was found to be 0.08 µg/mL (≈ 0.208 µM).
As for `O=C(NNc1cccc(F)c1)c1ccc(=O)n(CC2CCCCC2)c1` [Example 66, 1-(cyclohexylmethyl)-N′-(3-fluorophenyl)-6-oxo-1,6-dihydropyridine-3-carbohydrazide], the MIC80 against Candida albicans was determined as 0.27 µg/mL (≈ 0.786 µM).
On to `O=C(NNc1ccc(F)cc1)c1ccc(=O)n(CC2CCCCC2)c1` [Example 67, 1-(cyclohexylmethyl)-N′-(4-fluorophenyl)-6-oxo-1,6-dihydropyridine-3-carbohydrazide], for which, in the assay with Candida albicans, the MIC80 is 0.27 µg/mL (≈ 0.786 µM).
Molecule `O=C(Cn1cc(C(=O)NNc2cccc(F)c2)ccc1=O)c1ccc(C(F)(F)F)cc1` [Example 68, N′-(3-fluorophenyl)-6-oxo-1-(2-oxo-2-(4-(trifluoromethyl)phenyl)ethyl)-1,6-dihydropyridine-3-carbohydrazide] displayed an MIC80 in the assay on Candida albicans of 0.34 µg/mL (≈ 0.785 µM).
The molecule `O=C(Cn1cc(C(=O)NNc2ccc(F)cc2)ccc1=O)c1ccc(C(F)(F)F)cc1` [Example 69, N′-(4-fluorophenyl)-6-oxo-1-(2-oxo-2-(4-(trifluoromethyl)phenyl)ethyl)-1,6-dihydropyridine-3-carbohydrazide] came in with an MIC80 against Candida albicans of 0.68 µg/mL (≈ 1.57 µM).
`O=C(Cn1cc(C(=O)NNc2ccc(F)c(F)c2)ccc1=O)c1ccc(C(F)(F)F)cc1` [Example 70, N′-(3,4-difluorophenyl)-6-oxo-1-(2-oxo-2-(4-(trifluoromethyl)phenyl)ethyl)-1,6-dihydropyridine-3-carbohydrazide] returned an MIC80 with Candida albicans of 0.09 µg/mL (≈ 0.199 µM).
In the assay on Candida albicans, `O=C(Cn1cc(C(=O)NNc2cccc(F)c2)ccc1=O)Nc1ccc(C(F)(F)F)cc1` [Example 71, 2-(5-(2-(3-fluorophenyl)hydrazinecarbonyl)-2-oxopyridine-1(2H)-yl)-N-(4-(trifluoromethyl)phenyl)acetamide] gave an MIC80 of 0.04 µg/mL (≈ 0.0892 µM).
On the same count and under the same terms, with `O=C(Cn1cc(C(=O)NNc2ccc(F)cc2)ccc1=O)Nc1ccc(C(F)(F)F)cc1` [Example 72, 2-(5-(2-(4-fluorophenyl)hydrazinecarbonyl)-2-oxopyridine-1(2H)-yl)-N-(4-(trifluoromethyl)phenyl)acetamide] the figure was 0.09 µg/mL (≈ 0.201 µM); with `O=C(NNc1cccc(F)c1)c1ccc(=O)n(CCN2CCOCC2)c1` [Example 73, N′-(3-fluorophenyl)-1-(2-morpholinoethyl)-6-oxo-1,6-dihydropyridine-3-carbohydrazide], 0.56 µg/mL (≈ 1.55 µM).
In the assay with Candida albicans, `O=C(NNc1ccc(F)cc1)c1ccc(=O)n(CCN2CCOCC2)c1` [Example 74, N′-(4-fluorophenyl)-1-(2-morpholinoethyl)-6-oxo-1,6-dihydropyridine-3-carbohydrazide] gave an MIC80 of 0.56 µg/mL (≈ 1.55 µM).
On the same count and under the same terms, with `CN(C)C(=O)Cn1cc(C(=O)NNc2cccc(F)c2)ccc1=O` [Example 75, 2-(5-(2-(3-fluorophenyl)hydrazine-1-carbonyl)-2-oxopyridine-1(2H)-yl)-N,N-dimethylacetamide] the figure was 0.26 µg/mL (≈ 0.782 µM).
In the assay with Candida albicans, `COCCn1cc(C(=O)NNc2cccc(F)c2)ccc1=O` [Example 76, N′-(3-fluorophenyl)-1-(2-methoxyethyl)-6-oxo-1,6-dihydropyridine-3-carbohydrazide] registered an MIC80 of 0.12 µg/mL (≈ 0.393 µM).
Turning to `CN(C)C(=O)Cn1cc(C(=O)NNc2ccc(F)cc2)ccc1=O` [Example 77, 2-(5-(2-(4-fluorophenyl)hydrazinecarbonyl)-2-oxopyridine-1(2H)-yl)-N,N-dimethylacetamide], the MIC80 against Candida albicans is 1.04 µg/mL (≈ 3.13 µM).
On the same count and under the same terms, with `COCCn1cc(C(=O)NNc2ccc(F)cc2)ccc1=O` [Example 78, N′-(4-fluorophenyl)-1-(2-methoxyethyl)-6-oxo-1,6-dihydropyridine-3-carbohydrazide] the figure was 0.24 µg/mL (≈ 0.786 µM).
In the assay with Candida albicans, `O=C1NNc2cc(F)ccc2C(=O)OCC/C=C/Cn2cc1ccc2=O` [Example 79, (1^5E,10E)-5^5-fluoro-1^1,1^2-dihydro-7-oxa-3,4-diaza-1(5,1)-pyridina-5(1,2)-benzenacyclododecaphan-10-ene-1^2,2,6-trione] gave an MIC80 of 8.93 µg/mL (≈ 25 µM).
In the case of `O=C1NNc2ccccc2OCC/C=C/Cn2cc1ccc2=O` [Example 81, (1^5E,9E)-1^1,1^2-dihydro-6-oxa-3,4-diaza-1(5,1)-pyridina-5(1,2)-benzenacycloundecaphan-9-ene-1^2,2-dione], in the assay with Candida albicans, the MIC80 turned out to be 1.95 µg/mL (≈ 6.26 µM).
